Laboratory results taken from patent publication US12201691B2, “Core-shell structure, preparation, medicine for external application, tape agent and cosmetic product” (SEKISUI CHEMICAL CO., LTD., priority 2017, dated 2025).
Counter-ions that a name gives are not always drawn.

Columns and labels:
[1] = system: dorsal skin of a rabbit; assay: Primary irritation index of active ingredients (4% by weight in Plastibase); assay type: in vivo; details: active ingredient 4% by weight in Plastibase, Draize scores at 24 and 72 hours
Procedure: Low skin irritation means having a primary irritation index (P.I.I.) of 5 or less. Note that, the primary irritation index can be measured by a method described below.
An active ingredient is added to an ointment base Plastibase (manufactured by Taisho Pharmaceutical Co., Ltd.) such that its content reaches 4% by weight based on the total weight, mixed, and dispersed therein to produce a formulation.
The dorsal skin of a rabbit is shaved with an electric clipper (with an electric shaver as required). Healthy skin at two points on either side of the dorsal mid-line of the dorsal skin, that is, at four points in total, is used as administration sites. Next, the formulation prepared is taken with a spatula and spread evenly on pieces of lint each having a size of 2 cm×2 cm, and the pieces are attached onto the administration sites. The lint pieces are fixed by covering with a non-woven adhesive bandage (manufactured by Nichiban Co., Ltd., MESHPORE, No. 50). Then, the administration sites are altogether wrapped with gauze and then sealed by covering with an adhesive cloth elastic bandage (manufactured by Nichiban Co., Ltd., ELASTPORE, No. 100).
Specifically, individual skin reaction scores (sum of erythema and eschar formation and edema formation) at the administration sites of each rabbit are calculated for each administration specimen at each observation time. […] Specifically, the following equations (1) and (2) are used for the calculation.

[2] = Octanol/water partition coefficient; assay type: physicochemical; details: Log10(concentration in octanol phase/concentration in aqueous phase), aqueous buffer of pH 7
Procedure: Note that, in the present invention, the octanol/water partition coefficient is determined based on active ingredient concentration of each phase obtained by adding an active ingredient to a flask containing octanol and an aqueous buffer of pH 7, shaking the flask, and then determining the concentration. Specifically, the partition coefficient can be determined by calculation using an equation: Octanol/water partition coefficient=Log10(concentration in an octanol phase/concentration in an aqueous phase).

SMILES	primary irritation index (P.I.I.) [1]	logD [2]	octanol/water partition coefficient [2]
CC12CC3CC(C)(C1)CC(N)(C3)C2 [memantine hydrochloride]	2.5	–	–
CC(C(=O)O)c1ccc(CC2CCCC2=O)cc1 (stereo not drawn) [loxoprofen sodium dihydrate]	0.3	0.8	–
NC(=O)CC[C@@H]1NC(=O)[C@H](Cc2ccccc2)NC(=O)[C@H](Cc2ccc(O)cc2)NC(=O)[C@@H](N)CSSC[C@@H](C(=O)N2CCC[C@H]2C(=O)N[C@@H](CCCN=C(N)N)C(=O)NCC(N)=O)NC(=O)[C@H](CC(N)=O)NC1=O [[Arg-8]-Vasopressin]	–	-4.8	–
CCCc1nc(C)c2c(=O)[nH]c(-c3cc(S(=O)(=O)N4CCN(CC)CC4)ccc3OCC)nn12 [vardenafil hydrochloride hydrate]	–	–	0.0
CCN(C)C(=O)Oc1cccc([C@H](C)N(C)C)c1 [rivastigmine]	0.5	–	–
